Patent publication US20250049036A1 (priority 2021, published 2025)

Tests used:
[1] = system: Botrytis cinerea; assay: Botrytis cinerea test on tomato, preventive, greenhouse; type: in vivo; conditions: preventive spray on bean/chili plants (heading: tomato), inoculated one day after treatment, read-out: control (efficacy, disease severity) compared to the untreated check
[2] = system: Phakopsora pachyrhizi; assay: Phakopsora pachyrhizi test on soybean, preventive, greenhouse; type: in vivo; conditions: preventive spray on soybean, inoculated one day after treatment, read-out: control (efficacy, disease severity) compared to the untreated check
Summary of the method: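 Greenhouse-grown young soybean plants were sprayed with compound (2% DMSO/acetone, emulsifier in water) at the stated rate. One day later they were inoculated with 2×10^5 P. pachyrhizi inoculum and held at 22-24 °C, 80-90% relative humidity for disease development.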

[3] = system: Corynespora cassiicola; assay: Corynespora cassiicola (leaf spot of tomato) mycelial radial growth on potato dextrose agar; type: cell-based; conditions: 168 h, 25° C., seven days, read-out: control compared to the untreated check
Procedure: The compounds were dissolved in 0.3% dimethyl sulfoxide and then added to potato dextrose agar medium just prior to dispensing it into petri dishes. 5 mL medium, with the compound in the desired concentration, was dispensed into 60 mm sterile petri-plates. After solidification, each plate was seeded with a 5 mm size mycelial disc taken from the periphery of an actively growing virulent culture plate. The plates were incubated in growth chambers at 25° C. temperature and 70% relative humidity for seven days and the radial growth was measured and compared to the one of the untreated control.

[4] = system: Botrytis cinerea; assay: Botrytis cinerea liq. (BOTRCI) spore growth inhibition in liquid medium, 96-well microtiter plate, OD 405 nm; type: cell-based; conditions: spore suspension in YBA liquid medium, 22° C., 5-6 days, OD at 405 nm, read-out: control compared to the untreated check
Summary of the method: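 Spore suspension of B. cinerea (10^4 spores/ml) in YBA liquid medium mixed 1:1 with compound diluted from DMSO. Incubated at 22° C. for 5-6 days. Growth read as OD 405 nm; percent inhibition derived from treatment, untreated-control and blank readings.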

[5] = system: Alternaria solani; assay: Alternaria solani (early blight of tomato/potato) mycelial radial growth on potato dextrose agar; type: cell-based; conditions: 168 h, 25° C., seven days, read-out: control compared to the untreated check
Procedure: The compounds were dissolved in 0.3% dimethyl sulfoxide and then added to potato dextrose agar medium just prior to dispensing it into petri dishes. 5 mL medium, with the compound in the desired concentration, was dispensed into 60 mm sterile petri-plates. After solidification, each plate was seeded with a 5 mm size mycelial disc taken from the periphery of an actively growing virulent culture plate. The plates were incubated in growth chambers at 25° C. temperature and 60% relative humidity for seven days and the radial growth was measured and compared to the one of the untreated control.

[6] = system: Parastagonospora nodorum; assay: Parastagonospora nodorum (PARANO) spore growth inhibition in liquid medium, 96-well microtiter plate, OD 600; type: cell-based; conditions: spore suspension in PDB liquid medium, 18° C., 5-6 days, OD at 600, read-out: control compared to the untreated check
Summary of the method: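 Read-out is percent growth inhibition from OD at 600 after 5-6 days at 18° C. Compounds, dissolved in DMSO, were diluted in potato dextrose broth and combined in equal volume with a 10^5 spores/ml suspension of PARANO.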

[7] = system: Colletotrichum capsici; assay: Colletotrichum capsici (anthracnose) mycelial radial growth on potato dextrose agar; type: cell-based; conditions: Colletotrichum truncatum, 168 h, 25° C., seven days, read-out: control compared to the untreated check
Summary of the method: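 Compounds in 0.3% DMSO were mixed into potato dextrose agar, and each plate was seeded with a 5 mm mycelial disc from an actively growing culture. Plates were incubated at 25° C and 60% relative humidity for seven days. Radial growth was compared with untreated control.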

[8] = system: Pyricularia oryzae; assay: microbe, parasite or virus in culture; type: cell-based; conditions: 168 h, read-out: control compared to the untreated check
[9] = system: Botrytis cinerea; assay: Botrytis cinerea (gray mold) mycelial radial growth on potato dextrose agar; type: cell-based; conditions: 168 h, 22° C., seven days, read-out: control compared to the untreated check
Summary of the method: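 Compounds in 0.3% DMSO were mixed into potato dextrose agar, and plates were seeded with 5 mm mycelial discs from actively growing virulent culture. After seven days at 22 °C and 90% relative humidity, radial growth was measured relative to untreated control.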

[10] = system: Phytophthora infestans; assay: microbe, parasite or virus in culture; type: cell-based; conditions: 168 h, read-out: control compared to the untreated check
[11] = system: Fusarium culmorum; assay: Fusarium culmorum test on wheat, preventive, greenhouse; type: in vivo; conditions: preventive spray on wheat, inoculated one day after treatment, read-out: control (efficacy, disease severity) compared to the untreated check
Procedure: The respective compound was dissolved in 2% dimethyl sulfoxide/acetone and then mixed with water containing an emulsifier to a calibrated spray volume of 30 mL. Each spray solution was poured into a spray bottle for further application.
To test the preventive activity of a compound, healthy young wheat plants, raised in the greenhouse, were sprayed with the active compound preparation at the stated application rate inside the spray cabinets using hollow cone nozzles. One day after the treatment, the plants were inoculated with a spore suspension containing 2×10^6 Fusarium culmorum inoculum. The inoculated plants were then kept in a greenhouse chamber at 24° C. temperature and 80-90% relative humidity for disease expression.
(§1) A visual assessment of the compound's performance was carried out by rating the disease severity (0 100% scale) on treated plants 3, 7, 10 and 15 days after application. Efficacy (% control) of the compound was calculated by comparing the disease rating in the treatment with the one of the untreated control. The treated plants were also assessed for plant damage by recording symptoms like necrosis, chlorosis and stunting.

[12] = system: Alternaria solani; assay: Alternaria solani test in tomato, preventive, greenhouse; type: in vivo; conditions: preventive spray on tomato, inoculated one day after treatment, read-out: control (efficacy, disease severity) compared to the untreated check
Procedure: The respective compound was dissolved in 2% dimethyl sulfoxide/acetone and then mixed with water containing an emulsifier to the calibrated spray volume of 30 mL. Each spray solution was poured into a spray bottle for further application.
To test the preventive activity of a compound, healthy young tomato plants, raised in the greenhouse, were sprayed with the active compound preparation at the stated application rate inside the spray cabinets using hollow cone nozzles. One day after treatment, the plants were inoculated with a spore suspension containing 0.24×10^6 Alternaria solani inoculum. The inoculated plants were then kept in a greenhouse chamber at 22-24° C. temperature and 90-95% relative humidity for disease expression.
as §1

[13] = system: Venturia Inequalis; assay: Venturia inequalis (VENTIN) spore growth inhibition in liquid medium, 96-well microtiter plate, OD 600; type: cell-based; conditions: spore suspension in PDB liquid medium, 18° C., 15-18 days, OD at 600, read-out: control compared to the untreated check
Summary of the method: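 Venturia inequalis spores (10^5 spores/ml suspension) were grown in potato dextrose broth with test compounds dissolved in DMSO, mixing equal volumes of compound solution and spore suspension. Plates were incubated at 18 °C for 15–18 days. Growth was read as OD600 and converted to percent inhibition.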

[14] = system: Phytophthora infestans; assay: whole plant or invertebrate; type: in vivo, Phytophthora infestans on tomato; conditions: in Solanum lycopersicum, read-out: control (efficacy, disease severity) compared to the untreated check

Cc1cc(F)ccc1C(=O)OCC(C)(C)NC(=O)c1cnc2c(ccn2C)c1 [Compound 125, 2-methyl-2-(1-methyl-1H-pyrrolo[2,3-b]pyridine-5-carboxamido)propyl 4-fluoro-2-methylbenzoate]
≥ 70%: pest or weed control at 500 ppm [1] | pest or weed control at 500 ppm [2] | inhibition of growth at 300 ppm [3]

CCC(C)(Cc1ccccc1)NC(=O)c1cnc2c(ccn2C)c1 (stereo not shown) [Compound 6, 1-methyl-N-(2-methyl-1-phenylbutan-2-yl)-1H-pyrrolo[2,3-b] pyridine-5-carboxamide]
≥ 70%: inhibition of growth at 300 ppm [4] | inhibition of growth at 300 ppm [5] | inhibition of growth at 300 ppm [6] | inhibition of growth at 300 ppm [7] | inhibition of growth at 300 ppm [3]

Cn1ccc2cc(C(=O)NC(C)(C)Cc3ccc(Cl)cc3)cnc21 [Compound 43, N-(1-(4-chlorophenyl)-2-methylpropan-2-yl)-1-methyl-1H-pyrrolo[2,3-b]pyridine-5-carboxamide]
≥ 70%: pest or weed control at 500 ppm [2] | inhibition of growth at 300 ppm [8] | inhibition of growth at 300 ppm [6] | inhibition of growth at 300 ppm [3]

CC(C)(NC(=O)c1cnc2ccsc2c1)C(F)(F)F [Compound 109, N-(1,1,1-trifluoro-2-methylpropan-2-yl)thieno[3,2-b] pyridine-6-carboxamide]
≥ 70%: inhibition of growth at 300 ppm [4] | inhibition of growth at 300 ppm [9] | inhibition of growth at 300 ppm [8] | inhibition of growth at 300 ppm [5] | inhibition of growth at 300 ppm [6] | inhibition of growth at 300 ppm [10] | inhibition of growth at 300 ppm [3]

C=C(C)CC(C)(COc1ccc(F)cc1)NC(=O)c1cnc2c(ccn2C)c1 (stereo not shown) [Compound 121, N-(1-(4-fluorophenoxy)-2,4-dimethylpent-4-en-2-yl)-1-methyl-1H-pyrrolo[2,3-b]pyridine-5-carboxamide]
≥ 70%: pest or weed control at 500 ppm [11] | inhibition of growth at 300 ppm [7] | inhibition of growth at 300 ppm [3]

Cc1ccc(CC(C)(C)NC(=O)c2cnc3c(ccn3C)c2)cc1 [Compound 50, 1-methyl-N-(2-methyl-1-(p-tolyl)propan-2-yl)-1H-pyrrolo[2,3-b] pyridine-5-carboxamide]
≥ 70%: pest or weed control at 500 ppm [2] | inhibition of growth at 300 ppm [4] | inhibition of growth at 300 ppm [9] | inhibition of growth at 300 ppm [8] | inhibition of growth at 300 ppm [5] | pest or weed control at 500 ppm [11] | inhibition of growth at 300 ppm [6] | inhibition of growth at 300 ppm [7]

C=C(C)CC(C)(Cc1ccccc1F)NC(=O)c1cnc2c(ccn2C)c1 (stereo not shown) [Compound 127, N-(1-(2-fluorophenyl)-2,4-dimethylpent-4-en-2-yl)-1-methyl-1H-pyrrolo[2,3-b]pyridine-5-carboxamide]
≥ 70%: pest or weed control at 500 ppm [2] | pest or weed control at 500 ppm [12] | inhibition of growth at 300 ppm [13] | inhibition of growth at 300 ppm [7] | inhibition of growth at 300 ppm [3]

CC(C)CC(C)(Cc1ccccc1)NC(=O)c1cnc2c(ccn2C)c1 (stereo not shown) [Compound 2, N-(2,4-dimethyl-1-phenylpentan-2-yl)-1-methyl-1H-pyrrolo[2,3-b]pyridine-5-carboxamide]
≥ 70%: pest or weed control at 500 ppm [1] | pest or weed control at 500 ppm [2] | pest or weed control at 500 ppm [12] | inhibition of growth at 300 ppm [8] | inhibition of growth at 300 ppm [5] | inhibition of growth at 300 ppm [7] | inhibition of growth at 300 ppm [3]

Cc1cc2cc(C(=O)NC(C)(C)Cc3ccccc3)cnc2n1C [Compound 99, 1,2-dimethyl-N-(2-methyl-1-phenylpropan-2-yl)-1H-pyrrolo[2,3-b] pyridine-5-carboxamide]
≥ 70%: pest or weed control at 500 ppm [2] | inhibition of growth at 300 ppm [8] | inhibition of growth at 300 ppm [5] | pest or weed control at 500 ppm [11] | inhibition of growth at 300 ppm [6] | inhibition of growth at 300 ppm [7]

CC(C)(C)NC(=O)c1cnc2ccsc2c1 [Compound 107, N-(tert-butyl)thieno[3,2-b] pyridine-6-carboxamide]
≥ 70%: pest or weed control at 500 ppm [2] | inhibition of growth at 300 ppm [13] | inhibition of growth at 300 ppm [3]

C=C(C)CC(C)(Cc1ccccc1F)NC(=O)c1cnc2ccsc2c1 (stereo not shown) [Compound 129, N-(1-(2-fluorophenyl)-2,4-dimethylpent-4-en-2-yl)thieno[3,2-b] pyridine-6-carboxamide]
≥ 70%: pest or weed control at 500 ppm [2] | inhibition of growth at 300 ppm [5] | inhibition of growth at 300 ppm [7] | inhibition of growth at 300 ppm [3]

CC(c1ccccc1F)C(C)(C)NC(=O)c1cnc2c(c1)c(Br)cn2C (stereo not shown) [Compound 63, 3-bromo-N-(3-(2-fluorophenyl)-2-methylbutan-2-yl)-1-methyl-1H-pyrrolo[2,3-b]pyridine-5-carboxamide]
≥ 70%: pest or weed control at 500 ppm [1] | pest or weed control at 500 ppm [2] | inhibition of growth at 300 ppm [13] | inhibition of growth at 300 ppm [4] | inhibition of growth at 300 ppm [9] | inhibition of growth at 300 ppm [8] | pest or weed control at 500 ppm [11] | inhibition of growth at 300 ppm [6] | pest or weed control at 500 ppm [14]
